# Assay results as given in PMC10712727, “Safety, Tolerability, and Pharmacokinetics of Senaparib, a Novel PARP1/2 Inhibitor, in Chinese Patients With Advanced Solid Tumors: A Phase I Trial” (The Oncologist, 2023).
# System: patients with advanced solid tumors
# Assay: Safety: treatment-emergent and senaparib-related adverse events graded per NCI CTCAE v4.03
# Assay type: in vivo
# Method: This phase I, open-label, multicenter, dose-escalation, and dose-expansion study was conducted at three national clinical institutions in China. […] At baseline, all patients enrolled in the dose-escalation phase had to have at least one evaluable lesion, and those in the dose-expansion period had to have at least one measurable lesion, according to Response Evaluation Criteria in Solid Tumors version 1.1 (RECIST v1.1).[16] Entry to the dose-expansion cohort required the presence of a BRCA mutation, with the exception of patients with ovarian carcinoma, fallopian tube carcinoma, and primary peritoneal carcinoma. Full study eligibility criteria are provided in Supplementary Table S1.
# Dose escalation was conducted using a modified Fibonacci 3 + 3 method (Supplementary Fig. S1).[17] Patients were administered oral senaparib from a planned starting dose of 2 mg once daily (QD), with preliminary dose escalation to 120 mg via nine dose groups, in order of their entry into the study. At a given dose level, each patient received a single dose of senaparib followed by a 7-day washout period. They then entered a continuous dosing period to confirm the safety and PK profile, in which they received senaparib QD from day 1 to day 21 of each 3-week cycle. Progression to the next higher dose required approval from the Data Safety Monitoring Committee (DSMC) upon review of the safety and PK data of the previous dose. A 50-mg twice-daily (BID) dosing group was added (planned enrollment, n = 6 patients) based on a DSMC review of the safety, PK, and efficacy analysis of the completed QD dose groups in the phase I clinical trial of senaparib dose escalation in Australia (NCT03507543), which commenced prior to the start of this trial.
# The dose-expansion period included 3 populations: dose groups in which at least one patient achieved complete response (CR) or partial response (PR) per RECIST v1.1[16] and 1 dose group higher (evaluated for safety), as well as the dose group at the maximum tolerated dose (MTD)/recommended phase II dose (RP2D). Each of these groups included those patients in the respective dose-escalation group plus a planned additional 10 patients (approximately 20 patients in the MTD/RP2D group) with BRCA^mut+ solid tumors (ovarian, breast, or prostate cancer were preferred, and ovarian cancer could be BRCA wild type). Patients received senaparib monotherapy orally QD or BID (50-mg dose only) over each 3-week cycle until disease progression or unacceptable toxicity.
# DLTs were predefined toxicities (Supplementary Table S2) recorded over the 7 days following the single-dose administration of senaparib and during the first treatment cycle (day 1-day 21) for each dose group in the dose-escalation period only. The MTD was defined as the maximum dose at which ≤1/6 patients experienced a DLT. Senaparib PK parameters were derived from blood samples collected from patients after the single administration, and at regular intervals during the first cycle of the dose-escalation and dose-expansion periods. Plasma concentrations of senaparib were determined using high-performance liquid chromatography-tandem mass spectrometry. Tumor response was assessed every 6 weeks per RECIST v1.1,[16] recording objective response rate (ORR), disease control rate (DCR), duration of response (DOR), and progression-free survival (PFS) by dose level for all patients and for those harboring BRCA^mut+ tumors.
compound,measurement,setting,value
O=C(c1cc(Cn2c(=O)[nH]c(=O)c3c(F)cccc32)ccc1F)N1CCN(c2ncccn2)CC1 [Senaparib],"Pain in extremity, Gr≥3","TEAE, 120 mg QD n = 4",0 n (%)
same,"Platelet count decreased, All","TEAE, 120 mg QD n = 4",1 (25.0) n (%)
same,"Platelet count decreased, Gr≥3","TEAE, 120 mg QD n = 4",0 n (%)
same,"Protein in urine, All","TEAE, 120 mg QD n = 4",1 (25.0) n (%)
same,"Protein in urine, Gr≥3","TEAE, 120 mg QD n = 4",0 n (%)
same,"Vomiting, All","TEAE, 120 mg QD n = 4",1 (25.0) n (%)
same,"Vomiting, Gr≥3","TEAE, 120 mg QD n = 4",0 n (%)
same,"WBC decreased, All","TEAE, 120 mg QD n = 4",4 (100) n (%)
same,"WBC decreased, Gr≥3","TEAE, 120 mg QD n = 4",0 n (%)
same,"ALT increased, All","TEAE, Total N = 57",10 (17.5) n (%)
same,"ALT increased, Gr≥3","TEAE, Total N = 57",1 (1.8) n (%)
same,"AST increased, All","TEAE, Total N = 57",10 (17.5) n (%)
same,"AST increased, Gr≥3","TEAE, Total N = 57",1 (1.8) n (%)
same,"Abdominal distension, All","TEAE, Total N = 57",7 (12.3) n (%)
same,"Abdominal distension, Gr≥3","TEAE, Total N = 57",0 n (%)
same,"Anemia (incl. hemoglobin decreased), Gr≥3","TEAE, Total N = 57",12 (21.1) n (%)
same,"Appetite decreased, All","TEAE, Total N = 57",14 (24.6) n (%)
same,"Appetite decreased, Gr≥3","TEAE, Total N = 57",0 n (%)
same,"Asthenia, All","TEAE, Total N = 57",16 (28.1) n (%)
same,"Asthenia, Gr≥3","TEAE, Total N = 57",0 n (%)
same,"Blood bilirubin increased, All","TEAE, Total N = 57",8 (14.0) n (%)
same,"Blood bilirubin increased, Gr≥3","TEAE, Total N = 57",1 (1.8) n (%)
same,"Blood creatinine increased, All","TEAE, Total N = 57",8 (14.0) n (%)
same,"Blood creatinine increased, Gr≥3","TEAE, Total N = 57",0 n (%)
same,"Hypokalemia, All","TEAE, Total N = 57",6 (10.5) n (%)
same,"Hypokalemia, Gr≥3","TEAE, Total N = 57",0 n (%)
same,"Hyponatremia, All","TEAE, Total N = 57",7 (12.3) n (%)
same,"Hyponatremia, Gr≥3","TEAE, Total N = 57",1 (1.8) n (%)
same,"Nausea, All","TEAE, Total N = 57",14 (24.6) n (%)
same,"Nausea, Gr≥3","TEAE, Total N = 57",0 n (%)
same,"Neutrophil count decreased, All","TEAE, Total N = 57",12 (21.1) n (%)
same,"Neutrophil count decreased, Gr≥3","TEAE, Total N = 57",3 (5.3) n (%)
same,"Pain in extremity, All","TEAE, Total N = 57",7 (12.3) n (%)
same,"Pain in extremity, Gr≥3","TEAE, Total N = 57",2 (3.5) n (%)
same,"Platelet count decreased, All","TEAE, Total N = 57",17 (29.8) n (%)
same,"Platelet count decreased, Gr≥3","TEAE, Total N = 57",3 (5.3) n (%)
same,"Protein in urine, All","TEAE, Total N = 57",6 (10.5) n (%)
same,"Protein in urine, Gr≥3","TEAE, Total N = 57",0 n (%)
same,"Vomiting, All","TEAE, Total N = 57",12 (21.1) n (%)
same,"Vomiting, Gr≥3","TEAE, Total N = 57",2 (3.5) n (%)
same,"WBC decreased, All","TEAE, Total N = 57",25 (43.9) n (%)
same,"WBC decreased, Gr≥3","TEAE, Total N = 57",2 (3.5) n (%)
same,"ALT increased TRAE, All",Total N = 57,10 (17.5) n (%)
same,"ALT increased TRAE, Gr≥3",Total N = 57,1 (1.8) n (%)
same,"AST increased TRAE, All",Total N = 57,10 (17.5) n (%)
same,"AST increased TRAE, Gr≥3",Total N = 57,1 (1.8) n (%)
same,"Anemia TRAE, Gr≥3",Total N = 57,12 (21.1) n (%)
same,"Any TEAE, All",Total N = 57,57 (100) n (%)
same,"Any TEAE, Gr≥3",Total N = 57,27 (47.4) n (%)
same,"Any TEAE, events",Total N = 57,491 n ev
same,"Any TEAE, patients",Total N = 57,57 (100) n (%)
same,"Any TRAE, All",Total N = 57,55 (96.5) n (%)
same,"Any TRAE, Gr≥3",Total N = 57,19 (33.3) n (%)
same,"Appetite decreased TRAE, All",Total N = 57,13 (22.8) n (%)
same,"Appetite decreased TRAE, Gr≥3",Total N = 57,0 n (%)
same,"Asthenia TRAE, All",Total N = 57,15 (26.3) n (%)
same,"Asthenia TRAE, Gr≥3",Total N = 57,0 n (%)
same,"Blood bilirubin increased TRAE, All",Total N = 57,8 (14.0) n (%)
same,"Blood bilirubin increased TRAE, Gr≥3",Total N = 57,1 (1.8) n (%)
same,"Blood creatinine increased TRAE, All",Total N = 57,8 (14.0) n (%)
same,"Blood creatinine increased TRAE, Gr≥3",Total N = 57,0 n (%)
same,"Hypokalemia TRAE, All",Total N = 57,6 (10.5) n (%)
same,"Hypokalemia TRAE, Gr≥3",Total N = 57,0 n (%)
same,"Nausea TRAE, All",Total N = 57,14 (24.6) n (%)
same,"Nausea TRAE, Gr≥3",Total N = 57,0 n (%)
same,"Neutrophil count decreased TRAE, All",Total N = 57,12 (21.1) n (%)
same,"Neutrophil count decreased TRAE, Gr≥3",Total N = 57,3 (5.3) n (%)
same,"Platelet count decreased TRAE, All",Total N = 57,16 (28.1) n (%)
same,"Platelet count decreased TRAE, Gr≥3",Total N = 57,3 (5.3) n (%)
same,"SAEs, events",Total N = 57,12 n ev
same,"SAEs, patients",Total N = 57,12 (21.1) n (%)
same,"TEAE Grade ≥3, events",Total N = 57,41 n ev
same,"TEAE Grade ≥3, patients",Total N = 57,27 (47.4) n (%)
same,"TEAEs leading to death, events",Total N = 57,2 n ev
same,"TEAEs leading to death, patients",Total N = 57,2 (3.5) n (%)
same,"TEAEs leading to dose discontinuation, events",Total N = 57,10 n ev
same,"TEAEs leading to dose discontinuation, patients",Total N = 57,6 (10.5) n (%)
same,"TEAEs leading to dose interruption, events",Total N = 57,23 n ev
same,"TEAEs leading to dose interruption, patients",Total N = 57,15 (26.3) n (%)
same,"TEAEs leading to dose reduction, events",Total N = 57,10 n ev
same,"TEAEs leading to dose reduction, patients",Total N = 57,8 (14.0) n (%)
same,"TRAEs Grade ≥3, events",Total N = 57,29 n ev
same,"TRAEs Grade ≥3, patients",Total N = 57,19 (33.3) n (%)
same,"TRAEs, events",Total N = 57,403 n ev
same,"TRAEs, patients",Total N = 57,55 (96.5) n (%)
same,"Vomiting TRAE, All",Total N = 57,10 (17.5) n (%)
same,"Vomiting TRAE, Gr≥3",Total N = 57,1 (1.8) n (%)
same,"WBC decreased TRAE, All",Total N = 57,25 (43.9) n (%)
same,"WBC decreased TRAE, Gr≥3",Total N = 57,2 (3.5) n (%)
same,"All other grade ≥3 TEAEs, incidence of each",all patients N = 57,≤ 3.5%
same,"Anemia causing study drug discontinuation, patients",all patients N = 57,5.3%
same,"Grade ≥3 TEAE: anemia, incidence",all patients N = 57,21.1%
same,"Grade ≥3 TEAE: neutrophil count decreased, incidence",all patients N = 57,5.3%
same,"Grade ≥3 TEAE: platelet count decreased, incidence",all patients N = 57,5.3%
same,"Grade ≥3 TEAEs, incidence",all patients N = 57,47.4%
same,"Grade ≥3 TRAE: anemia, incidence",all patients N = 57,21.1%
same,Overall incidence of grade ≥3 TRAEs,all patients N = 57,33.3%
same,Patients with senaparib-related adverse events (TRAEs),all patients N = 57,96.5%
same,"Serious adverse events considered related to senaparib, patients",all patients N = 57,12.3%
same,"Serious adverse events, patients",all patients N = 57,21.1%
same,"TEAEs causing dose interruption, patients",all patients N = 57,26.3%
same,"TEAEs causing dose reduction, patients",all patients N = 57,14.0%
same,"TEAEs causing study drug discontinuation, patients",all patients N = 57,10.5%
same,"TEAEs, number of events",all patients N = 57,491 events
same,"Senaparib-related adverse event (TRAE): anemia, incidence","all patients N = 57, any grade",80.9%
same,"TEAE: anemia, incidence","all patients N = 57, any grade",80.9%
same,"TEAE: asthenia, incidence","all patients N = 57, any grade",28.1%
same,"TEAE: platelet count decreased, incidence","all patients N = 57, any grade",29.8%
same,"TEAE: white blood cell count (WBC) decreased, incidence","all patients N = 57, any grade",43.9%
same,"TRAE: asthenia, incidence","all patients N = 57, any grade",26.3%
same,"TRAE: platelet count decreased, incidence","all patients N = 57, any grade",28.1%
same,"TRAE: white blood cell count decreased, incidence","all patients N = 57, any grade",43.9%
same,"TEAEs resulting in death, patients","all patients N = 57, neither related to senaparib",3.5%
same,Patients with most frequent (hematologic) TRAEs of grade ≤3,in vivo,> 90%
same,Pneumonitis and venous thromboembolic events,present study,neither of which were observed
same,Secondary hematologic tumors (AML/MDS),present study population,no cases
